Laboratory results published in ChEMBL document CHEMBL3779816, “Microwave-assisted regioselective direct CH arylation of thiazole derivatives leading to increased 1receptor affinity” (Medchemcomm, 2016).

Assays:
Rattus norvegicus = species on record: Rattus norvegicus; assay: Displacement of [3H]di-o-tolylguanidine from sigma 2 receptor in rat liver membranes at 1 uM after 120 mins by liquid scintillation spectrometry in presence of (+)-pentazocine; type: cell membranes; conditions: Membrane
[1] = biological target: Sigma non-opioid intracellular receptor 1 (Cavia porcellus, UniProt Q60492); assay: Displacement of [3H](+)-pentazocine from sigma 1 receptor in guinea pig brain membranes after 150 mins by liquid scintillation spectrometry; type: cell membranes, Membrane
[2] = Displacement of [3H]di-o-tolylguanidine from sigma 2 receptor in rat liver membranes after 120 mins by liquid scintillation spectrometry in presence of (+)-pentazocine; type: cell membranes, Membrane

Sigma non-opioid intracellular receptor 1, sequence (Q60492 whole entry): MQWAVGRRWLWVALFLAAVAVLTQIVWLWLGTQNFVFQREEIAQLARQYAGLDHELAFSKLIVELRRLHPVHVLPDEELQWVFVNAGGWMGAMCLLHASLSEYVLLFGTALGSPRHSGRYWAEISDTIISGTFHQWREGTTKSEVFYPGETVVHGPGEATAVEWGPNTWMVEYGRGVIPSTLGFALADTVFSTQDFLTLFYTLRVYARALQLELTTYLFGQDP

SMILES	inhibition (Rattus norvegicus) [%]	Ki [1] [µM]	Ki [2] [µM]
Cc1ccc(-c2csc(C3(O)CCN(Cc4ccccc4)CC3)n2)cc1	–	0.0038	0.154
Cc1ccccc1NC(=N)Nc1ccccc1C [DITOLYLGUANIDINE]	–	–	0.107
O=C(CCCN1CCC(O)(c2ccc(Cl)cc2)CC1)c1ccc(F)cc1 [HALOPERIDOL]	–	–	0.022
Cc1ccc(-c2cnc(C3(O)CCN(Cc4ccccc4)CC3)s2)cc1	–	0.007	0.457
OC1(c2nccs2)CCN(Cc2ccccc2)CC1	–	0.033	1.8

More lines, now with the values ahead:

inhibition (Rattus norvegicus) [%]	Ki [1] [µM]	Ki [2] [µM]	SMILES
44	–	–	COC1Cc2cc(-c3ccc(C)cc3)sc2C2(CCN(Cc3ccccc3)CC2)O1 (stereo unspecified)
16	–	–	COC1Cc2ccsc2C2(CCN(Cc3ccccc3)CC2)O1 (stereo unspecified)
34	–	–	COC1Cc2c(-c3ccc(C)cc3)csc2C2(CCN(Cc3ccccc3)CC2)O1 (stereo unspecified)
